Experimental data published in US20100075345A1, “METHOD OF SCREENING” (priority 2007, published 2010).

Test system: Mcl-1^(−/−) mouse embryonic fibroblasts (MEFs)
Assay: Assay of Mcl-1 null MEF cells: ABT-737-induced killing and rescue, cell viability by CellTitre-Blue/CellTitre-Glo
Type: cell-based
Experimental: In summary, cells are split on day one in order to have them at a confluency of 60-80% on day two. On day two, the cells are seeded out into assay plates at a density that will ensure they are not confluent by day four of the assay. The assay plates are incubated at room temperature for 20-60 minutes before being transferred to 37° C. so that edge effects are minimized. For the same reason, assay plates are never stacked on top of each other in the incubator. On day three the cells are treated first with either qVD or with WEHI library compound. […] On day four the cells are incubated for four hours in the presence of CellTitre-Blue™ Cell Viability Assay. This product contains resaruzin which is metabolized by live cells to resorufin. After four hours the level of resorufin is measured. […] This product measures the level of ATP in the cell culture as a direct correlate of cell viability via a luciferase-dependent luminescence output. […]
The protocol for day one was repeated up to the point where the cells were pelleted and the supernatant aspirated off. […] The cells were vortexed and then counted using a haemocytometer. The dilution necessary to achieve a density of 2×10^4 cells ml^−1 (1000 cells per well per 50 μl media) in the required volume was calculated and the dilution performed in 1% FCS containing media. […]

Q: With `CC(C)[C@H](NC(=O)c1ccc2ccccc2n1)C(=O)N[C@@H](CC(=O)O)C(=O)COc1c(F)cccc1F` [qVD-OPH] as the compound, how does the “inhibition of killing of Mcl-1 null MEF cells by ABT-737 (rescue from ABT-737-induced apoptosis)” value (cells pre-incubated 2 hours with compound, then treated with ABT-737, viability read next day) read?
A: Its value is “can be rescued”.
